Laboratory results: US11939290B2, “Heterocycle-containing amino acid compound and salt thereof, complex, composition, fertilizer and plant growth regulator” (TOKUSHIMA UNIVERSITY, priority 2018, dated 2024)

Experiment: Stability test in acidic aqueous solution (1H NMR residual rate)
Format: physicochemical
Settings: for residual rate, lapsed day 0 / residual rate, lapsed day 10 / residual rate, lapsed day 20 / residual rate, lapsed day 27: acidic aqueous solution in heavy water; for residual rate, lapsed day 0: pH 2.0, 0 day (immediately after preparation); for residual rate, lapsed day 10 / residual rate, lapsed day 20 / residual rate, lapsed day 27: pH 2.0, stored at 25° C. sealed, protected from light; for residual rate, lapsed day 10: 10 days; for residual rate, lapsed day 20: 20 days; for residual rate, lapsed day 27 / stability in an acidic aqueous solution compared with derivatives (X), (X′) and (Y): 27 days; for stability in an acidic aqueous solution compared with derivatives (X), (X′) and (Y): acidic aqueous solution pH 2, 25° C.
Procedure: In this stability test, whether acidic aqueous solutions prepared using the derivatives (X), (X′) and (Y), and 2′-deoxymugineic acid (DMA) and a compound having the following structure (hereinafter, referred to as “PDMA”) were stable along with the lapse of time, i.e., whether the derivatives were difficult to decompose was evaluated.
The following test solutions (a), (b) and (c) were prepared using the derivatives (X), (X′) and (Y). Also, the following test solutions (d) and (e) were prepared using DMA and PDMA. The test solution (a) was prepared by dissolving 3 μmol of the substance in 0.5 mL of heavy water. Other test solutions were prepared by dissolving 0.03 mmol of the substance in 0.5 mL of heavy water. The pH of the test solution was 2. • Test solution (a) for Test Example 1: acidic aqueous solution of the derivative (X) • Test solution (b) for Test Example 2: acidic aqueous solution of the derivative (X′) • Test solution (c) for Test Example 3: acidic aqueous solution of the derivative (Y) • Test solution (d) for Referential Example 1: acidic aqueous solution of DMA • Test solution (e) for Referential Example 2: acidic aqueous solution of PDMA
An NMR measuring tube (manufactured by Kanto Chemical Co., Inc., φ5 mm×7 inch) was filled with each of the test solutions (a) to (e), and ^1H NMR measurement was performed. ^1H NMR was measured immediately after (0 day), 10 days after, 20 days after, and 27 days after the preparation of the test solution. The test solutions were stored at room temperature (25° C.) in a sealed state in which they were placed in the NMR measuring tubes, while being protected from light.
Attention was paid to 4.4 ppm (1H, q) for DMA, 4.4 ppm (1H, q) for PDMA, 4.3 ppm (1H, dd) for the derivative (X), 4.3 ppm (1H, dd) for the derivative (X′), and 4.3 ppm (1H, dd) for the derivative (Y) in the resulting ^1H NMR spectrum. […] On the other hand, in the case of the test solutions (d) and (e), peaks derived from decomposition products of DMA and PDMA were detected with the lapse of the storage time. The chemical shifts of the peaks were 4.5 ppm (t, 1H) for DMA and 4.5 ppm (1H, t) for PDMA. Thus, from the integrated values, the residual rate of DMA or PDMA after 10, 20, and 27 days was calculated based on the following calculation formula (see Table 1 and FIG. 1):
(Integrated value of measured compound)/{(integrated value of measured compound)+(integrated value of decomposition product)}×100

| residual rate, lapsed day 0 [%] | residual rate, lapsed day 10 [%] | residual rate, lapsed day 20 [%] | residual rate, lapsed day 27 [%] | stability in an acidic aqueous solution compared with derivatives (X), (X′) and (Y) | SMILES |
| --- | --- | --- | --- | --- | --- |
| 100 | 77.3 | 68.2 | 59.3 | inferior | O=C(O)C(O)CCNC(CCN1CCC1C(=O)O)C(=O)O (stereo not shown) [DMA, 2′-deoxymugineic acid] |
| 100 | 68.4 | 61.7 | 55.2 | inferior | O=C(O)C(O)CCNC(CCN1CCCC1C(=O)O)C(=O)O (stereo not shown) [PDMA] |
